From ChEMBL document CHEMBL1201862, “PubChem BioAssay data set” (2004)
Calls of active or inactive are those of the source.

Assays:
Format in all cases: functional
[1] = target: T1, High affinity choline transporter 1 (Homo sapiens, UniProt Q9GZV3); assay: CHT inhibitors, dose response, cell-based, 5-point CRC, membrane potential dye (AID 504840)
T1 sequence (Q9GZV3 whole entry): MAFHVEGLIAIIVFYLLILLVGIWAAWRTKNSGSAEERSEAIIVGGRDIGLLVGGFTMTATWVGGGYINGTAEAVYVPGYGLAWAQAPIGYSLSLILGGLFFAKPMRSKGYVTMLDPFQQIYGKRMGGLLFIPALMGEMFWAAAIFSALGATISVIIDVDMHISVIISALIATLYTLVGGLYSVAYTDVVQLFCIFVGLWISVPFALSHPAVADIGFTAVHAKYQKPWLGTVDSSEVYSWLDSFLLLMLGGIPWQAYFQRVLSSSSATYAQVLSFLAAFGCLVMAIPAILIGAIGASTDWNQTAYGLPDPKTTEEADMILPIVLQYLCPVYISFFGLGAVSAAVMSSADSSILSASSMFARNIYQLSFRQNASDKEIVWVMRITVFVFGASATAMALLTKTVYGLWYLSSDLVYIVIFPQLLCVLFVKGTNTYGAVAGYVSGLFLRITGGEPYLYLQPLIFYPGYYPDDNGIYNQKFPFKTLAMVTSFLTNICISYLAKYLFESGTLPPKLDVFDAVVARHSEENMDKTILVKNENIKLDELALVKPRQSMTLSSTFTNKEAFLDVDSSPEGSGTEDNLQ

[2] = target: T1, High affinity choline transporter 1; assay: CHT inhibitors, dose response, cell-based, 10-point CRC, membrane potential dye (AID 588401);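 further: membrane potential dye fluorescence of choline-evoked depolarization via CHT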
[3] = target: Wee1-like protein kinase (Homo sapiens, UniProt P30291); assay: Navigating the Kinome. Panel member name: WEE1
[4] = target: ALK tyrosine kinase receptor (Homo sapiens, UniProt Q9UM73);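 further: ALK tested as one member of a kinase panel screen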
[5] = target: Aurora kinase B (Homo sapiens, UniProt Q96GD4)
[6] = target: Cell division cycle 7-related protein kinase (Homo sapiens, UniProt O00311);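 further: value obtained from a kinome-wide kinase panel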
[7] = target: T2, Aurora kinase A (Homo sapiens, UniProt O14965);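 further: value from the Navigating the Kinome kinase panel profiling, panel entry STK6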
T2 sequence (O14965 whole entry): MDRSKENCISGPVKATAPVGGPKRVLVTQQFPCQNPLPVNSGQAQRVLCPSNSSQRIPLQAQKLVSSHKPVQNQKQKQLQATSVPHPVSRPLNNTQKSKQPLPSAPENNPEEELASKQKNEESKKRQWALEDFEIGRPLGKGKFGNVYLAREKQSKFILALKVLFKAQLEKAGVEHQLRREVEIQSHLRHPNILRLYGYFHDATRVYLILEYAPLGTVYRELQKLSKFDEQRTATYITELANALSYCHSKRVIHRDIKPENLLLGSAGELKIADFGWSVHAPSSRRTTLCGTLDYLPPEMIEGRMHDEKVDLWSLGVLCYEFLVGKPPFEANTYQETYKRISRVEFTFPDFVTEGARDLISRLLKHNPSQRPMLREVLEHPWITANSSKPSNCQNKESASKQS

[8] = target: Melanin-concentrating hormone receptor 1 (Homo sapiens, UniProt Q99705); assay: Late-stage fluorescence-based counterscreen for antagonists of the G-protein coupled receptor 7 (GPR7): cell-based dose response assay to identify antagonists of the melanin-concentrating hormone receptor 1 (MCHR1) Set 6.
[9] = target: Neuropeptides B/W receptor type 1 (Homo sapiens, UniProt P48145); assay: GPR7 antagonist potency, late-stage follow-up, cell-based, fluorescence, dose response, set 6 (AID 588583)
Sequence of Neuropeptides B/W receptor type 1 (P48145 whole entry): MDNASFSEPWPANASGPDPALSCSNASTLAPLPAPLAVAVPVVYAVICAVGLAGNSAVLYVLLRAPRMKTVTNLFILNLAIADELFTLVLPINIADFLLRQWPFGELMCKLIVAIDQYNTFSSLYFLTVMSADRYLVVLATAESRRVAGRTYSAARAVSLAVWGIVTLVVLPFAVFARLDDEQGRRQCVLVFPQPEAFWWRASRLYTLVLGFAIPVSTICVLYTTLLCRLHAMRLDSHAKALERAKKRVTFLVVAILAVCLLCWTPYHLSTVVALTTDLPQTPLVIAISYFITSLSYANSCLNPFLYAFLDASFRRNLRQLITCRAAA

Sequence of ALK tyrosine kinase receptor (Q9UM73 whole entry): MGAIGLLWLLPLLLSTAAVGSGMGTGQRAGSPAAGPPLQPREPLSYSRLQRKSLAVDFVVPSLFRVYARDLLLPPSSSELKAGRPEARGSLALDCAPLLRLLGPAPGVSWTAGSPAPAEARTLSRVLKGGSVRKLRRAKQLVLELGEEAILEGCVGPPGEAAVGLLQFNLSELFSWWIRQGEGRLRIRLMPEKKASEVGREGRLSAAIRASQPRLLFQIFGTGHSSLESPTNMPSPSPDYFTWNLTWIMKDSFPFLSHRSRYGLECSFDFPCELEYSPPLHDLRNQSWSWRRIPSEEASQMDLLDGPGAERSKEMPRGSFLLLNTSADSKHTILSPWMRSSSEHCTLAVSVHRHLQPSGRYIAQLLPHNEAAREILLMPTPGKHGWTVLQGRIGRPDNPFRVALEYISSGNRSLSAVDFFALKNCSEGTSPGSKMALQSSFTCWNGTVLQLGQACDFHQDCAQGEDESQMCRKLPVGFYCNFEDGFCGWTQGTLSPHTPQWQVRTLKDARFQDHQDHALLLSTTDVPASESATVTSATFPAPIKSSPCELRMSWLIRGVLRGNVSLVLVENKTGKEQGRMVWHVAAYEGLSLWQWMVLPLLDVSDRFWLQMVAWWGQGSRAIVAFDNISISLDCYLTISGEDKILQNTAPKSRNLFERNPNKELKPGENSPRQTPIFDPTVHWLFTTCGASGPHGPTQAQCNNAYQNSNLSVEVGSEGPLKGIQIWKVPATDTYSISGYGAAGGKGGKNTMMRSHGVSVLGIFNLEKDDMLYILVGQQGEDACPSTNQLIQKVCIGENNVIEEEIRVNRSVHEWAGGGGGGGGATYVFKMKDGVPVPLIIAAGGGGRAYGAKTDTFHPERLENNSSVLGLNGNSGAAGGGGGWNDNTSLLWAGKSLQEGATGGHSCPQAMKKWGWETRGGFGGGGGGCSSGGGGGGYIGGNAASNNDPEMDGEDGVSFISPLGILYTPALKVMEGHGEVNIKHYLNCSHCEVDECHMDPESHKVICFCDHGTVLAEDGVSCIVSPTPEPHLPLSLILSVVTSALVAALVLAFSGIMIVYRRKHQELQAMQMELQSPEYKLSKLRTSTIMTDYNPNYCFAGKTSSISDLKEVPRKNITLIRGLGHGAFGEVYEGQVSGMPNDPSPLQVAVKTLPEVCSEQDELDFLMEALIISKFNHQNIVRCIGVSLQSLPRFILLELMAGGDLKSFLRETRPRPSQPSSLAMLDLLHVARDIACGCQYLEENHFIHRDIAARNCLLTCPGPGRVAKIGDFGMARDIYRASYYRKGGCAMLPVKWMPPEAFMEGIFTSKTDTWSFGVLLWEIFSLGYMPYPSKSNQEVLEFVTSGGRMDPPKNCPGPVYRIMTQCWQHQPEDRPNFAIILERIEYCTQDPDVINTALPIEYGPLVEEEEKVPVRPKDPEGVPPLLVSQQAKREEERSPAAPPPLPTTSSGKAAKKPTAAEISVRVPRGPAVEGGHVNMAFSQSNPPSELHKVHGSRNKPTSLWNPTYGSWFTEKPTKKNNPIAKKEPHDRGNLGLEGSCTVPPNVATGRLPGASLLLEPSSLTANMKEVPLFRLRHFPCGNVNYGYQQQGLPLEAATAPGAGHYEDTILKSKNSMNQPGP
Sequence of Wee1-like protein kinase (P30291 whole entry): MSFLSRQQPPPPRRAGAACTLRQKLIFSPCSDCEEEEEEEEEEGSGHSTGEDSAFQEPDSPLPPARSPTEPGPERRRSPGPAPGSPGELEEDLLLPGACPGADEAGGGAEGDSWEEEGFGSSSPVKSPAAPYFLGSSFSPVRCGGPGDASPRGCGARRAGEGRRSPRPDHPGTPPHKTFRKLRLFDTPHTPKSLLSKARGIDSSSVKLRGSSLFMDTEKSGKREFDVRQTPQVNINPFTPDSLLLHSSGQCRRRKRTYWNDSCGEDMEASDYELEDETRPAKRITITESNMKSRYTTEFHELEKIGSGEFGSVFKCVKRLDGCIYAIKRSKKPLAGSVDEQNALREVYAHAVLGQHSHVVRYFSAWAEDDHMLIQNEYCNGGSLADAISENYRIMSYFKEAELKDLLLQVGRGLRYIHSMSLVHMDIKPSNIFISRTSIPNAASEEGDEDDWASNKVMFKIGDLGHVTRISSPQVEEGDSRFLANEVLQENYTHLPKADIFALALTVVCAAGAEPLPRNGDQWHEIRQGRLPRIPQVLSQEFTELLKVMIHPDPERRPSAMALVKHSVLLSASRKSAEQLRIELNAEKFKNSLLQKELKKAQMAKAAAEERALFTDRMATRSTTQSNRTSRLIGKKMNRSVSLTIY
Sequence of Melanin-concentrating hormone receptor 1 (Q99705 whole entry): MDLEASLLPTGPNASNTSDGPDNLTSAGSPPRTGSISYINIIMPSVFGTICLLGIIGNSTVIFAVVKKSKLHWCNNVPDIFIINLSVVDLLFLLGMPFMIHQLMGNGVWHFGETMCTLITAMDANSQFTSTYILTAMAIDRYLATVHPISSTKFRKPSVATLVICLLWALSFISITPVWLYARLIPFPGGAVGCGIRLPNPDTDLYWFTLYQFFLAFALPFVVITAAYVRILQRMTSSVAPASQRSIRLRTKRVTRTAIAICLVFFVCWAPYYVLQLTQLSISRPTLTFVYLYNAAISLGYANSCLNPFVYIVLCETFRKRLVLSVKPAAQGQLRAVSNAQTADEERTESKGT
Sequence of Aurora kinase B (Q96GD4 whole entry): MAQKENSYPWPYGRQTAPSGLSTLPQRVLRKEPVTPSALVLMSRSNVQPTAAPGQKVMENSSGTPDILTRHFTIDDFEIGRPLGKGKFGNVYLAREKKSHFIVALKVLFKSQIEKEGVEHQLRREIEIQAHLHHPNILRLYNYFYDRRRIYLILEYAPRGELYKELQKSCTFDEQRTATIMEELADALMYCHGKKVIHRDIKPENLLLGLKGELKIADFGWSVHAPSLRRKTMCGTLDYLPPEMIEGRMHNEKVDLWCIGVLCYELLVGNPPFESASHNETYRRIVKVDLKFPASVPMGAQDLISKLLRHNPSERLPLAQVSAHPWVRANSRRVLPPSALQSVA
Sequence of Cell division cycle 7-related protein kinase (O00311 whole entry): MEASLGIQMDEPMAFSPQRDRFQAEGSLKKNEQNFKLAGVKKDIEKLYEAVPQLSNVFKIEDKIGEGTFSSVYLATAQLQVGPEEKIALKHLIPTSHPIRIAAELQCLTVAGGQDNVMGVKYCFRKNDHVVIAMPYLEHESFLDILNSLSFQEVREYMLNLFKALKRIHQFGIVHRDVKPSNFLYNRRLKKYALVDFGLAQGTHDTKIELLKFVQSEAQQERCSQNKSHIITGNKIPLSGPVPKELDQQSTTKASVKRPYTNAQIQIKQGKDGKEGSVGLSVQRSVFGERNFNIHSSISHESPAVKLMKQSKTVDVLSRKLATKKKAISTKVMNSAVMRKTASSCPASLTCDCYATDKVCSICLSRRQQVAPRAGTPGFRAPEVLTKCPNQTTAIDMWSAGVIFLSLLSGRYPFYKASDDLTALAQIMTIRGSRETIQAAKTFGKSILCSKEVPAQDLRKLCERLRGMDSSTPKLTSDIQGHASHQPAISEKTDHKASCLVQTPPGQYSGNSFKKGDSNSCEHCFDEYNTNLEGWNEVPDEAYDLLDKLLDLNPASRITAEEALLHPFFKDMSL

Compound: CC(CN1CCN(C)CC1)OC(=O)c1ccccc1Cl (centres undefined)
- IC50 [1]: 10000 nM (active)
- IC50 [2]: 4220 nM (active)

Compound: CCN1CCN(c2ccc(Nc3ncc(C(F)(F)F)c(Nc4ccc5[nH]ncc5c4)n3)cc2)CC1
- Ki [3]: 7.94 nM (active)
- Ki [4]: 15.8 nM (active)

Compound: COc1ccc(Nc2nccc(Nc3ccccc3C(=O)O)n2)cc1O
- Ki [5]: 5.01 nM (active)
- Ki [6]: 0.126 nM (active)
- Ki [7]: 20 nM (active)

Compound: CCOc1ccccc1Cn1ncc(Cl)c(Oc2ccc(OC)cc2)c1=O
- IC50 [8]: ~624 nM (active)
- IC50 [9]: ~624 nM (active)
